Numbered stars: 1 amine (or outer) side, 2 acyl side, 3 side chain; on linkers, the order of the positions; unused ones are H or OH. Bridge positions count the residues as written; N and C are the ends. Square brackets hold non-standard residues; d marks the D form. Side chains are listed from the residue outwards. Peptide text beside a SMILES is read from it. * marks the point of attachment. C20 diacid = O=C(O)CCCCCCCCCCCCCCCCCCC(=O)*; γGlu = O=C(O)[C@H](CCC(=O)[*:2])N[*:1]; Hyp = O=C(O)[C@@H]1C[C@@H](O)CN1; AEEA = NCCOCCOCC(=O)O
Legend:
[1] = molecular target: T1, hAMY3 receptor (Homo sapiens, UniProt O60896+P30988); assay: cAMP assay for in vitro receptor activation, hAMY3-R; type: cell-based; conditions: cAMP assay, hAMY3 receptor; read-out: hAMY3R EC50
T1 sequence (P30988 25-474): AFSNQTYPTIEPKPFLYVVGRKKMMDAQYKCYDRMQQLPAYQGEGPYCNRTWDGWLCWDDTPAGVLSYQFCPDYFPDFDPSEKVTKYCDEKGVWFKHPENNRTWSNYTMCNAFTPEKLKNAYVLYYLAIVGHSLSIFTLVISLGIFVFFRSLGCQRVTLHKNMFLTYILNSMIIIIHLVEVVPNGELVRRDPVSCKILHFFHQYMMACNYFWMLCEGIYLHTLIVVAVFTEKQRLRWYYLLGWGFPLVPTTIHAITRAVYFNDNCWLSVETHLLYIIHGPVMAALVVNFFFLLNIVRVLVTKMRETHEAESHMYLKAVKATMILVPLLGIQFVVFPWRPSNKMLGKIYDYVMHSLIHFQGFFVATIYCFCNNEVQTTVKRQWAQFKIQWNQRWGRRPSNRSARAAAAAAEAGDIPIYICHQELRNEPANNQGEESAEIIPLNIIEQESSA
T1 sequence (O60896 24-148 partner): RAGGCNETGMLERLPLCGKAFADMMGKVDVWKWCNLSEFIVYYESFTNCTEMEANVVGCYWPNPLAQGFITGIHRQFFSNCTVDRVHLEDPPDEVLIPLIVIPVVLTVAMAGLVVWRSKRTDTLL
In short: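 Graded compound concentrations were applied for 30 min at room temperature to stably hAMY3-expressing cells in DPBS, 0.05% casein, 0.5 mM IBMX; cAMP detected by TR-FRET.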

[2] = molecular target: hAM1 receptor (Homo sapiens, UniProt O60895+Q16602); assay: cAMP assay for in vitro receptor activation, hAM1-R; type: cell-based; conditions: cAMP assay, hAM1 receptor; read-out: hAM1R EC50
Chain of hAM1 receptor (Q16602 23-461): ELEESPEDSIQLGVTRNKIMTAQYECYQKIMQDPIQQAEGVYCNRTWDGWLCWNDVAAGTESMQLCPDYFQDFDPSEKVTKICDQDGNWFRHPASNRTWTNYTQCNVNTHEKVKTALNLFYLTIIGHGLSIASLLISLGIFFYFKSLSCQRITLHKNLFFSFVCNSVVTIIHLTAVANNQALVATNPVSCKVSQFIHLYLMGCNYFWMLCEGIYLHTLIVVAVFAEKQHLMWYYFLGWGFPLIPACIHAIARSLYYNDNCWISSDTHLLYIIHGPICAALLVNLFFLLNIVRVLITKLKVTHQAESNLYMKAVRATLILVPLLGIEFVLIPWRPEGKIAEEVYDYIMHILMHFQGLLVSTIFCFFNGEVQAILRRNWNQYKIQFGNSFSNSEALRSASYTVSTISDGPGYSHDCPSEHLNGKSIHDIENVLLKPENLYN
Chain of hAM1 receptor (O60895 43-175 partner): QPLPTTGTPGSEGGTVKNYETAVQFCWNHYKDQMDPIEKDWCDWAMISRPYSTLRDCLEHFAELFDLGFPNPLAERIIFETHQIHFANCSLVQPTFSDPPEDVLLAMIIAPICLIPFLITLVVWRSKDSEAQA
In short: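 Stable hAM1 cells (monoclonal) plated 8000/well; buffer DPBS, 0.05% casein, 0.5 mM IBMX; cAMP read-out.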

[3] = Acute food intake study in lean rats; type: in vivo, rat; conditions: 10 nmol/kg, single SC injection, lean healthy rats; for Average cumulative food intake: up to 48 h, P < 0.001 vs vehicle
Experimental: General Protocols for Acute Food Intake Study
The effect on cumulative food intake was measured in male Sprague Dawley rats (6 weeks of age, Taconic, Denmark) following a single dose using a fully automated food intake monitoring system (HM-2; MBRose ApS, Faaborg, Denmark), allowing for advanced synchronous real-time monitoring of food intake behaviour of individual animals. The animals were housed in groups of 4 in a light-, temperature-, and humidity-controlled room (a 12/12 LD cycle, lights on at 02:00 AM; 22±2° C.; 50% relative humidity). The mice had ad libitum access to regular chow diet (Altromin 1324, Brogaarden A/S, Lynge, Denmark) and domestic quality tap water. Mice arrived at day 7, and a minimum of 5 days of habituation to the system was allowed prior to beginning of the study. During these days, the animals were handled daily to accustom them to the experimental paradigm. On the day of dosing, the animals were randomized into groups according to body weight. Animals were fasted for four hours prior to dosing. Animals were dosed SC 30 or 180 min prior to lights out, and food intake data were collected automatically for a total of 48 h post-dosing with automatic food recordings every 5 min.

[4] = Physical stability of peptide analogues (Thioflavin T fibrillation); type: physicochemical; conditions: maximum ThT signal normalized between hAMY maximum and buffer background; 40° C., shaking, four days; pH 7 per table title
In short: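 ThT fluorescence (450 nm excitation, 480 nm emission; 4 μM dye) was read every 10 min over four days at 40° C under 700 rpm shaking stress, after 1 h in pH 4 acetate or pH 7 phosphate (50 mM). Peak smoothed signal expressed as percent, scaled between buffer background and hAMY maximum.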

CC[C@H](C)[C@H](NC(=O)[C@H](CCC(N)=O)NC(=O)[C@H](Cc1c[nH]cn1)NC(=O)[C@H](C)NC(=O)[C@H](CC(C)C)NC(=O)[C@H](CCCNC(=N)N)NC(=O)[C@H](CCC(N)=O)NC(=O)[C@@H](NC(=O)[C@@H](NC(=O)[C@@H]1CSSC[C@H](NC(=O)[C@H](CCCCN)NC(=O)CC[C@H](NC(=O)CCCCCCCCCCCCCCCCCCC(=O)O)C(=O)O)C(=O)N[C@@H](CC(N)=O)C(=O)N[C@@H]([C@@H](C)O)C(=O)N[C@@H](C)C(=O)N[C@@H]([C@@H](C)O)C(=O)N1)[C@@H](C)O)C(C)C)C(=O)N[C@H](C(=O)N[C@@H](CCC(N)=O)C(=O)N[C@@H](Cc1ccccc1)C(=O)N[C@H](C(=O)N[C@@H](CC(=O)O)C(=O)N[C@@H](CCCCN)C(=O)N[C@@H](CC(=O)O)C(=O)N[C@@H](CCCCN)C(=O)N[C@@H](CC(=O)O)C(=O)N[C@@H](CC(N)=O)C(=O)N[C@H](C(=O)N[C@@H](C)C(=O)N1CCC[C@H]1C(=O)N1CCC[C@H]1C(=O)N[C@H](C(=O)N[C@@H](CC(N)=O)C(=O)N[C@H](C(=O)NCC(=O)N[C@@H](CO)C(=O)N[C@@H](CC(N)=O)C(=O)NCC(=O)N1C[C@H](O)C[C@H]1C(N)=O)C(C)C)[C@@H](C)O)C(C)C)[C@@H](C)O)C(C)C [compound 85] ({C20 diacid-γGlu}-KCNTATCTVQRLAHQIVQFTDKDKDNVAPPTNVGSNG[Hyp]-NH2; disulfide 2-7)
EC50 [1]: 0.015 nM
EC50 [2]: > 5000 nM
cumulative food intake, % to vehicle [3]: 45.70%
Average cumulative food intake [3]: 18.6 g

CC[C@H](C)[C@H](NC(=O)[C@H](CCC(N)=O)NC(=O)[C@H](Cc1c[nH]cn1)NC(=O)[C@H](C)NC(=O)[C@H](CC(C)C)NC(=O)[C@H](CCCNC(=N)N)NC(=O)[C@H](CCC(N)=O)NC(=O)[C@@H](NC(=O)[C@@H](NC(=O)[C@@H]1CSSC[C@H](NC(=O)[C@H](CCCCN)NC(=O)CC[C@H](NC(=O)CCCCCCCCCCCCCCCCCCC(=O)O)C(=O)O)C(=O)N[C@@H](CC(N)=O)C(=O)N[C@@H]([C@@H](C)O)C(=O)N[C@@H](C)C(=O)N[C@@H]([C@@H](C)O)C(=O)N1)[C@@H](C)O)C(C)C)C(=O)N[C@@H](C)C(=O)N[C@@H](CCC(N)=O)C(=O)N[C@@H](Cc1ccccc1)C(=O)N[C@H](C(=O)N[C@@H](CC(=O)O)C(=O)N[C@@H](CCCCN)C(=O)N[C@@H](CC(=O)O)C(=O)N[C@@H](CCCCN)C(=O)N[C@@H](CC(=O)O)C(=O)N[C@@H](CC(N)=O)C(=O)N[C@H](C(=O)N[C@@H](C)C(=O)N1CCC[C@H]1C(=O)N1CCC[C@H]1C(=O)N[C@H](C(=O)N[C@@H](CC(N)=O)C(=O)N[C@H](C(=O)NCC(=O)N[C@@H](CO)C(=O)N[C@@H](CC(N)=O)C(=O)N[C@@H](CO)C(=O)N1C[C@H](O)C[C@H]1C(N)=O)C(C)C)[C@@H](C)O)C(C)C)[C@@H](C)O [compound 69] ({C20 diacid-γGlu}-KCNTATCTVQRLAHQIAQFTDKDKDNVAPPTNVGSNS[Hyp]-NH2; disulfide 2-7)
EC50 [1]: 0.013 nM
cumulative food intake, % to vehicle [3]: 17.52%
Average cumulative food intake [3]: 7.13 g

CC[C@H](C)[C@H](NC(=O)[C@H](CCC(N)=O)NC(=O)[C@H](CCC(=O)O)NC(=O)[C@H](C)NC(=O)[C@H](CC(C)C)NC(=O)[C@H](CCCNC(=N)N)NC(=O)[C@H](CCC(N)=O)NC(=O)[C@@H](NC(=O)[C@@H](NC(=O)[C@@H]1CSSC[C@H](NC(=O)[C@@H](N)CCCCN)C(=O)N[C@@H](CC(N)=O)C(=O)N[C@@H]([C@@H](C)O)C(=O)N[C@@H](C)C(=O)N[C@@H]([C@@H](C)O)C(=O)N1)[C@@H](C)O)C(C)C)C(=O)N[C@@H](Cc1ccc(O)cc1)C(=O)N[C@@H](CCC(N)=O)C(=O)N[C@@H](Cc1ccccc1)C(=O)N[C@H](C(=O)N[C@@H](CC(=O)O)C(=O)N[C@@H](CCCCN)C(=O)N[C@@H](CC(=O)O)C(=O)N[C@@H](CCCCN)C(=O)N[C@@H](CC(=O)O)C(=O)N[C@@H](CC(N)=O)C(=O)N[C@H](C(=O)N[C@@H](C)C(=O)N1CCC[C@H]1C(=O)N1CCC[C@H]1C(=O)N[C@H](C(=O)N[C@@H](CC(N)=O)C(=O)N[C@H](C(=O)NCC(=O)N[C@@H](CO)C(=O)N[C@@H](CCCCNC(=O)COCCOCCNC(=O)COCCOCCNC(=O)CC[C@H](NC(=O)CCCCCCCCCCCCCCCCCCC(=O)O)C(=O)O)C(=O)NCC(=O)N1C[C@H](O)C[C@H]1C(N)=O)C(C)C)[C@@H](C)O)C(C)C)[C@@H](C)O [compound 6] (H-KCNTATCTVQRLAEQIYQFTDKDKDNVAPPTNVGSK([AEEA-AEEA-γGlu-C20 diacid])G[Hyp]-NH2; disulfide 2-7; N-terminus assumed)
EC50 [1]: 0.006 nM
EC50 [2]: > 5000 nM
cumulative food intake, % to vehicle [3]: 65.63%
Average cumulative food intake [3]: 27.5 g

CC[C@H](C)[C@H](NC(=O)[C@H](C)NC(=O)CNC(=O)[C@H](Cc1ccccc1)NC(=O)[C@H](CC(N)=O)NC(=O)[C@H](CC(N)=O)NC(=O)[C@H](CO)NC(=O)[C@H](CO)NC(=O)[C@H](Cc1c[nH]cn1)NC(=O)[C@@H](NC(=O)[C@H](CC(C)C)NC(=O)[C@H](Cc1ccccc1)NC(=O)[C@H](CC(N)=O)NC(=O)[C@H](C)NC(=O)[C@H](CC(C)C)NC(=O)[C@H](CCCNC(=N)N)NC(=O)[C@H](CCC(N)=O)NC(=O)[C@@H](NC(=O)[C@H](C)NC(=O)[C@@H]1CSSC[C@H](NC(=O)[C@@H](N)CCCCN)C(=O)N[C@@H](CC(N)=O)C(=O)N[C@@H]([C@@H](C)O)C(=O)N[C@@H](C)C(=O)N[C@@H]([C@@H](C)O)C(=O)N1)[C@@H](C)O)C(C)C)C(=O)N[C@@H](C)C(=O)N1CCC[C@H]1C(=O)N[C@@H](CO)C(=O)N[C@H](C(=O)N[C@@H](CCCCN)C(=O)N[C@H](C(=O)NCC(=O)N[C@@H](CO)C(=O)N[C@@H](CC(N)=O)C(=O)NCC(=O)N[C@@H](Cc1ccc(O)cc1)C(N)=O)C(C)C)[C@@H](C)O [compound 93] (H-KCNTATCATQRLANFLVHSSNNFGAIAPSTKVGSNGY-NH2; disulfide 2-7; N-terminus assumed)
EC50 [1]: 0.016 nM
EC50 [2]: > 5000 nM
cumulative food intake, % to vehicle [3]: 46.93%
Average cumulative food intake [3]: 19.1 g

CC[C@H](C)[C@H](NC(=O)[C@H](CCCCN)NC(=O)[C@@H](NC(=O)[C@H](CCCNC(=N)N)NC(=O)[C@@H]1CCCN1C(=O)[C@H](C)NC(=O)[C@@H](NC(=O)[C@H](CC(N)=O)NC(=O)[C@H](CC(=O)O)NC(=O)[C@H](CCCCN)NC(=O)[C@H](CC(=O)O)NC(=O)[C@H](CCCCN)NC(=O)[C@H](CC(=O)O)NC(=O)[C@@H](NC(=O)[C@H](Cc1ccccc1)NC(=O)[C@H](CCC(N)=O)NC(=O)[C@H](Cc1ccc(O)cc1)NC(=O)[C@@H](NC(=O)[C@H](CCC(N)=O)NC(=O)[C@H](Cc1c[nH]cn1)NC(=O)[C@H](C)NC(=O)[C@H](CC(C)C)NC(=O)[C@H](CCCNC(=N)N)NC(=O)[C@H](CCC(N)=O)NC(=O)[C@@H](NC(=O)[C@@H](NC(=O)[C@@H]1CSSC[C@H](NC(=O)CN)C(=O)N[C@@H](CCCNC(=N)N)C(=O)N[C@@H](Cc2ccccc2)C(=O)NCC(=O)N[C@@H]([C@@H](C)O)C(=O)N1)[C@@H](C)O)C(C)C)[C@@H](C)CC)[C@@H](C)O)C(C)C)[C@@H](C)O)C(=O)NCC(=O)N1CCC[C@H]1C(=O)N[C@@H](CC(N)=O)C(=O)NCC(=O)N1C[C@H](O)C[C@H]1C(N)=O [compound 124] (H-GCRFGTCTVQRLAHQIYQFTDKDKDNVAPRTKIGPNG[Hyp]-NH2; disulfide 2-7)
EC50 [1]: 0.027 nM
Max ThT signal (%) [4]: 4.800%
cumulative food intake, % to vehicle [3]: 59.46%
Average cumulative food intake [3]: 24.2 g

Reference: patent US12139520B2 (priority 2020, dated 2024)
